From patent US11547722B2, “Bactericides and antifungal agents” (priority 2017, dated 2023)
Converted amounts (≈) assume the structure as drawn. Like-named read-outs stand apart in the source and are kept apart here.

Legend:
[1] = Aqueous solubility of metal sulfides without and with solubilizing additive
Method: Mix the 90 mL of the SO4Cu solution with 10 mL of the Na2S solution. […] Separate it by filtration.
Place this precipitate in 100 mL of water in a stirred container.
With constant stirring, drop a very concentrated solution of NH3 into the water very slowly.
Mix the 97 mL of the NO3Ag solution with 3 mL of the Na2S solution. […] Separate it by filtration.
With constant stirring, drop very slowly a concentrated solution of ammonium citrate (NH4)5(C6H4O7)2H3.
Dissolve 77 mg of Cl3Au in 95 mL of water. Mix the 95 mL of the Cl3Au solution with 5 mL of the Na2S solution. […] Separate it by filtration.
While stirring constantly, drop a very concentrated solution of potassium dichromate very slowly.

[2] = system: MSSA (Meticillin Sensitive Staphylococcus aureus, ATCC 29213); assay: MIC test on MSSA bacteria (serial two-fold dilution, 96-well plate)
[3] = system: MRSA (Meticillin Resistant Staphylococcus aureus, ATCC 43300); assay: MIC test on MRSA bacteria (serial two-fold dilution, 96-well plate)
[4] = aqueous solutions, 24 h at 37° C.

## [Au+3].[Au+3].[S-2].[S-2].[S-2] [S3Au2, gold sulfide]
[1]; addition of potassium dichromate alone or an equimolar mixture of potassium dichromate and ammonia
  aqueous Au concentration reached: at least 0.2 g/l
[1]; addition of potassium dichromate, or potassium dichromate and ammonia, Example 3
  aqueous concentration in Au reached: at least 0.2 g.l^−1
[1]; without additive
  maximum concentration in aqueous solution: undetectable
[1]; without additive, Examples 1 and 3
  maximum concentration in water: undetectable

## Cc1onc(-c2ccccc2)c1C(=O)N[C@@H]1C(=O)N2[C@@H]1SC(C)(C)[C@@H]2C(=O)O [Oxacilline, reference compound]
[2]; Staphylococcus aureus, 24 h, read-out: MIC MSSA
  MIC: 0.25 µg/mL (≈ 0.623 µM)
[3]; Staphylococcus aureus, 24 h, read-out: MIC MRSA
  MIC: 256 µg/mL (≈ 638 µM)

## O=S(=O)([O-])[O-].[Cu+2] [V, copper sulfate]
[2]; [4]
  MIC MSSA: 78 µg/mL
[3]; [4]
  MIC MRSA: 78 to 157 µg/mL

## copper sulfide [SCu]
[1]
  aqueous concentration in Cu reached: at least 0.2 g.l^−1
  aqueous concentration of Cu reached: ≥ 0.2 g/L
  maximum concentration in aqueous solution: 0.33 mg/L
  maximum concentration in water: 0.33 mg/L
